Experimental data from patent US20100174065A1, “COMPOUNDS” (GLAXO GROUP LIMITED, priority 2007, published 2010).
Structures can show the parent of a compound that is named as a salt.

Molecular target: T1, human S1P1 receptor (Homo sapiens, UniProt P21453)
T1 construct: expressed in transfected cells; membranes
Experiment: S1P1 GTPγS assay
Format: biochemical
Conditions: agonist activity, [35S]-GTPγS binding, human S1P1 rat hepatoma membranes
Experimental: (§1) For membrane preparations all steps were performed at 4° C. Rat hepatoma cells stably expressing the human S1P1 receptor or Rat Basophilic Leukaemia cells (RBL) stably expressing human S1P3 receptor were grown to 80% confluency before being harvested into 10 ml Phospho-Buffered Saline (PBS) and centrifuged at 1200 rpm for 5 minutes. After removal of the supernatant, the pellet was re-suspended and cells were homogenised within a glass Waring blender for 2 bursts of 15 secs in 200 mls of buffer (50 mM HEPES, 1 mM leupeptin, 25 μg/ml bacitracin, 1 mM EDTA, 1 mM PMSF, 2 μM pepstatin A). The blender was plunged into ice for 5 mins after the first burst and 10-40 mins after the final burst to allow foam to dissipate. The material was then spun at 500 g for 20 mins and the supernatant spun for 36 mins at 48,000 g. The pellet was resuspended in the same buffer as above but without PMSF and pepstatin A. The material was then forced through a 0.6 mm needle, made up to the required volume, (usually ×4 the volume of the original cell pellet), aliquoted and stored frozen at −80° C.
as §1, with “All” for “For membrane preparations all”, “Cells” for “Rat hepatoma cells stably expressing the human S1P1 receptor or Rat Basophilic Leukaemia cells (RBL) stably expressing human S1P3 receptor were grown to 80% confluency before being harvested into 10 ml Phospho-Buffered Saline (PBS) and centrifuged at 1200 rpm for 5 minutes. After removal of the supernatant, the pellet was re-suspended and cells”
Human S1P1 rat hepatoma membranes (1.5 μg/well) were adhered to a wheatgerm agglutinin (WGA)-coated scintillation proximity assay (SPA) beads (0.125 mg/well) in assay buffer (HEPES 20 mM, MgCl2 10 mM, NaCl 100 mM and pH adjusted to 7.4 using KOH 5M, GDP 10 μM FAC (final assay concentration) and saponin 90 μg/ml FAC was also added).
After 30 minutes pre-coupling on ice the bead and membrane suspension was dispensed into a white Greiner polypropylene LV384-well plate ([…]), containing 0.1 μl of the compound. 5 μl/well [^355]-GTPγS (0.5 nM final radioligand conc) made up in assay buffer was then added to agonist plates. The final assay cocktail (10.1 μl) was then centrifuged at 1000 rpm for 5 minutes then read immediately on a Viewlux reader.
All test compounds were dissolved in DMSO at a concentration of 10 mM and were prepared in 100% DMSO using a 1 in 4 dilution step to provide 11 point dose response curves. The dilutions were transferred to the assay plates ensuring that the DMSO concentration was constant across the plate for all assays.
All data was normalized to the mean of 16 high and 16 low control wells on each plate. A four parameter curve fit was then applied.
S1P1 expressing RH7777 membranes (1.5 μg/well) membranes (1.5 μg/well) were homogenised by passing through a 23G needle. These were then adhered to WGA-coated SPA beads (0.125 mg/well) in assay buffer (HEPES 20 mM, MgCl2 10 mM, NaCl 100 mM and pH adjusted to 7.4 using KOH 5M). GDP 10 μM FAC and saponin 90 μg/ml FAC were also added
After 30 minutes precoupling on ice, the bead and membrane suspension was dispensed into white Greiner polypropylene LV 384-well plates (5 μl/well), containing 0.1 μl of compound. 5 μl/well [^35S]-GTPγS (0.5 nM for S1P1 or 0.3 nM for S1P3 final radioligand concentration) made in assay buffer was then added to the plates. The final assay cocktail (10.1 μl) was then sealed, spun on a centrifuge, then read immediately on a Viewlux instrument.

T1 sequence (P21453 whole entry): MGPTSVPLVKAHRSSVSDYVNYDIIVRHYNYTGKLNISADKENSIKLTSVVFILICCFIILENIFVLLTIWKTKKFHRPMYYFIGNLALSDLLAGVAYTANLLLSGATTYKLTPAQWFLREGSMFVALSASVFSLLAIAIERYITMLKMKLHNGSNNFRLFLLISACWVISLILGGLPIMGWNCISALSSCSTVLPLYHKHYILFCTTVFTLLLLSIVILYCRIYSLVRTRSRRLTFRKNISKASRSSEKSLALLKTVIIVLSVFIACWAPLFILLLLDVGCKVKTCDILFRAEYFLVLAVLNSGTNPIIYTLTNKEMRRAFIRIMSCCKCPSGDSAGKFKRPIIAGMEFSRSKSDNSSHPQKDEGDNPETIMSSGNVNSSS

CC(C)Oc1ccc(-c2nc(-c3ccc4c(c3)CCCN(CCC(=O)O)C4)no2)cc1C#N [Example 6, 3-[7-(5-{3-Cyano-4-[(1-methylethyl)oxy]phenyl}-1,2,4-oxadiazol-3-yl)-1,3,4,5-tetrahydro-2H-2-benzazepin-2-yl]propanoic acid hydrochloride] and CC(C)Oc1ccc(-c2nc(-c3ccc4c(c3)CCN(CCCC(=O)O)CC4)no2)cc1C#N [Example 27, 4-[7-(5-{3-cyano-4-[(1-methylethyl)oxy]phenyl}-1,2,4-oxadiazol-3-yl)-1,2,4,5-tetrahydro-3H-3-benzazepin-3-yl]butanoic acid hydrochloride] cannot be ordered by EC50: less than 100 nM for the first, no more than 10 nM for the second.

CC(C)Oc1ccc(-c2nc(-c3cccc4c3CCNCC4)no2)cc1C#N [Example 7, 2-[(1-Methylethyl)oxy]-5-[3-(2,3,4,5-tetrahydro-1H-3-benzazepin-6-yl)-1,2,4-oxadiazol-5-yl]benzonitrile hydrochloride] and CC(C)Oc1ccc(-c2nc(-c3cccc4c3CCNCC4)no2)cc1Cl [Example 8, 6-(5-{3-Chloro-4-[(1-methylethyl)oxy]phenyl}-1,2,4-oxadiazol-3-yl)-2,3,4,5-tetrahydro-1H-3-benzazepine hydrochloride] cannot be ordered by EC50: no more than 10 nM for the first, less than 100 nM for the second.

CC(C)Oc1ccc(-c2nc(-c3cccc4c3CCCN(CC(=O)O)C4)no2)cc1Cl [Example 12, [6-(5-{3-Chloro-4-[(1-methylethyl)oxy]phenyl}-1,2,4-oxadiazol-3-yl)-1,3,4,5-tetrahydro-2H-2-benzazepin-2-yl]acetic acid hydrochloride] and CC(C)Oc1ccc(-c2nc(-c3ccc4c(c3)CCN(CC(=O)O)CC4)no2)cc1Cl [Example 22, [7-(5-{3-Chloro-4-[(1-methylethyl)oxy]phenyl}-1,2,4-oxadiazol-3-yl)-1,2,4,5-tetrahydro-3H-3-benzazepin-3-yl]acetic acid] cannot be ordered by EC50: less than 100 nM for the first, less than 100 nM for the second.

CC(C)Oc1ccc(-c2nc(-c3ccc4c(c3)CCNCC4)no2)cc1C#N [Example 18, 2-[(1-Methylethyl)oxy]-5-[3-(2,3,4,5-tetrahydro-1H-3-benzazepin-7-yl)-1,2,4-oxadiazol-5-yl]benzonitrile hydrochloride] and CC(C)Oc1ccc(-c2nc(-c3ccc4c(c3)CCNCC4)no2)cc1C(F)(F)F [Example 19, 7-{5-[4-[(1-Methylethyl)oxy]-3-(trifluoromethyl)phenyl]-1,2,4-oxadiazol-3-yl}-2,3,4,5-tetrahydro-1H-3-benzazepine hydrochloride] cannot be ordered by EC50: less than 100 nM for the first, less than 100 nM for the second.

CC(C)Oc1ccc(-c2nc(-c3ccc4c(c3)CCN(CCC(=O)O)CC4)no2)cc1Cl [Example 21, 3-[7-(5-{3-Chloro-4-[(1-methylethyl)oxy]phenyl}-1,2,4-oxadiazol-3-yl)-1,2,4,5-tetrahydro-3H-3-benzazepin-3-yl]propanoic acid] and CC(C)Oc1ccc(-c2nc(-c3ccc4c(c3)CCN(CCCC(=O)O)CC4)no2)cc1Cl [Example 26, 4-[7-(5-{3-Chloro-4-[(1-methylethyl)oxy]phenyl}-1,2,4-oxadiazol-3-yl)-1,2,4,5-tetrahydro-3H-3-benzazepin-3-yl]butanoic acid] cannot be ordered by EC50: no more than 10 nM for the first, no more than 10 nM for the second.

CC(C)Oc1ccc(-c2nc(-c3ccc4c(c3)CCN(CC(=O)O)CC4)no2)cc1C#N [Example 23, [7-(5-{3-Cyano-4-[(1-methylethyl)oxy]phenyl}-1,2,4-oxadiazol-3-yl)-1,2,4,5-tetrahydro-3H-3-benzazepin-3-yl]acetic acid] and CC(C)Oc1ccc(-c2nc(-c3ccc4c(c3)CCN(CC(=O)O)CC4)no2)cc1C(F)(F)F [Example 24, (7-{5-[4-[(1-Methylethyl)oxy]-3-(trifluoromethyl)phenyl]-1,2,4-oxadiazol-3-yl}-1,2,4,5-tetrahydro-3H-3-benzazepin-3-yl)acetic acid] cannot be ordered by EC50: no more than 10 nM for the first, no more than 10 nM for the second.

O=C(O)CN1CCc2ccc(-c3noc(-c4ccc(-c5ccccc5)c(C(F)(F)F)c4)n3)cc2CC1 [Example 25, (7-{5-[2-(Trifluoromethyl)-4-biphenylyl]-1,2,4-oxadiazol-3-yl}-1,2,4,5-tetrahydro-3H-3-benzazepin-3-yl)acetic acid] showed an EC50 of less than 100 nM.
